Laboratory results from patent US12702673B2, “Sulfated C19 steroid hormones to treat and/or prevent proteotoxicity in protein-aggregation diseases” (U[…] DE OLAVIDE, priority 2020, dated 2026).
“Also recorded” adds a separate entry of the source. Counter-ions that a name gives are not always drawn.

Tests used:
[1] = system: GMC101 strain expressing human β-amyloid in muscle; assay: Alzheimer's disease model: paralysis of GMC101 strain; assay type: in vivo, Caenorhabditis elegans; conditions: for paralysis with age: 20° C., monitored during adulthood
Excerpt: Data display from six independent biological replicates, n≥215.
FIG. 4b illustrates that paralysis of GMC101 Alzheimer's disease model is ameliorate with TS and ES.
Assays performed with normal NGM plates. Data display from three independent biological replicates, n>130.
FIG. 15 illustrates that treatment with Androsterone Sulfate (AS) ameliorates the symptoms of Alzheimer's model in Caenorhabditis elegans. The strain GMC101 expresses the human b-amyloid in muscle cells and generate paralysis with age. […] Data from 5 biological replicates. Paralysis was monitored during adulthood. […] More than 200 nematodes were analyzed. Nematodes were synchronized and assayed at 20° C.

[2] = system: NL5901 strain expressing α-synuclein in muscle cells; assay type: in vivo, Caenorhabditis elegans; conditions: 1 μg/ml
[3] = system: mammalian model with intrahippocampal administration of βA oligomers; conditions: local administration; cited from earlier work
C. elegans = assay: Longevity (lifespan) assay in C. elegans; assay type: in vivo, Caenorhabditis elegans
Excerpt: Worms were cultivated in UV-killed E. coli.
FIGS. 13c and 13d illustrate that additional biological replicates of longevity curve with sulfated C19 steroid hormones.

daf-2(e1370) = assay: Development / larval arrest at 25° C. (daf-2 interaction); assay type: in vivo, Caenorhabditis elegans; conditions: for L1 arrest: daf-2(e1370) background
Protocol: FIG. 5i illustrates example of sul-2(pv17) larvae, Dauer larval arrest of daf-2(e1370) or L1 arrest of daf-2(e1370); sul-2(pv17) and daf-2(e1370); sul-2(gk187) at 25° C. Animals were grown up to L4 at 16° C., then shifted at 25° C., progeny were scored or imaged after 72 hours. Photographs were taken in a Leica scope.
Photographs were taken in a Leica scope. Arrow heads: Dauers, arrows: L1s.

[4] = system: Q40 aggregates (AM141 strain); assay: Huntington model: polyglutamine (Q40) aggregates; assay type: in vivo, Caenorhabditis elegans; conditions: Q40 background; 1 μg/ml; 5-day old worms
Excerpt: Strains AM140 and AM141 respectively.
In this model, GFP-labelled dopaminergic neurons die due to α-synuclein toxicity. […] We also tested two different strains of Alzheimer's disease (AD) in worms, where immobility is caused by expression of βA protein in muscle cells.

[5] = system: CL2006 strain expressing human β-amyloid in muscle; assay: Alzheimer's disease model: paralysis with age of CL2006 strain; assay type: in vivo, Caenorhabditis elegans
Excerpt: FIG. 12g illustrates that expression of human β-amyloid in muscle provokes paralysis with age (CL2006 strain) that is ameliorated by STX64 treatment. Log-rank (Mantel-Cox) test, for sul-2 deletion p=0.0027 and STX treatment p=0.007.

[6] = system: wild type mice injected with β-amyloid oligomers in the hippocampus; assay: Passive avoidance test, acute AD model (intrahippocampal β-amyloid oligomers); assay type: in vivo
Excerpt: FIGS. 3i and 3j illustrate that the effect of intrahippocampal and oral administration of STX64 in the passive avoidance test in wild type mice injected with β-amyloid oligomers in the hippocampus. The number of mice in each group were >5.
FIG. 3p illustrates effect of oral administration with STX64 in more than 15-month-old APP-PS1 mice, and comparation with APP-PS1 and wild type mice older than 15 months in the passive avoidance test. The number of mice in each group were >5. In histological analysis, * represent significant differences between vehicle- and STX64 administrated APP-PS1 mice. […]
As STX64 ameliorated neurodegeneration in C. elegans models, we tested the effect of this drug on cognitive alterations provoked by intrahippocampal βA oligomers infusion, an acute AD mammalian model (FIG. 3i). […] To evaluate the effect of STX64 oral treatment on amyloid pathology in a chronic AD mice model, we assessed the effect of 3-4 weeks of STX64 oral treatment on amyloid deposition in the […] (the cerebral cortex and the hippocampus) of >15-month-old APP-PS1 mice (FIG. 4k). […]

APP-PS1 mice [7] = assay: β-amyloid deposition in chronic AD model; assay type: in vivo
Protocol: FIG. 3k illustrates that representative β-amyloid-immunoreactive images assessed in the frontal cortex and the hippocampus of APP-PS1 mice older than 15 months of age after 3-4 weeks of vehicle or STX64 intake (0.005 mg/ml in drink water).
FIGS. 3l-3n illustrate quantification of percentage of β-amyloid area (c), deposition density (d) and average plaque size (e) in the frontal cortex and the hippocampus of >15 months-old APP-PS1 mice after 3-4 weeks of oral administration with STX64 or vehicle. n=4 mice per groups.
FIG. 3o illustrates temporal course of β-amyloid deposition in APP-PS1 mice and the effect of 3-4 weeks STX64 oral treatment on β-amyloid area in the frontal cortex (upper panel) and the hippocampus (lower panel). The number of microphotographs used was more than 3 in all the mice used.
As STX64 ameliorated neurodegeneration in C. elegans models, we tested the effect of this drug on cognitive alterations provoked by intrahippocampal βA oligomers infusion, an acute AD mammalian model (FIG. 3i). […] To evaluate the effect of STX64 oral treatment on amyloid pathology in a chronic AD mice model, we assessed the effect of 3-4 weeks of STX64 oral treatment on amyloid deposition in the […] (the cerebral cortex and the hippocampus) of >15-month-old APP-PS1 mice ([…]). […] We wondered if this histological improvement correlated with amelioration of cognitive behavioral deficit. For that, we compared cognition capacities in APP-PS1 mice older than 15-month-old treated with vehicle or STX64 for 3-4 weeks.

APP-PS1 mice [8] = assay: Passive avoidance test in chronic AD model; assay type: in vivo; conditions: APP-PS1 mice older than 15 months; 3-4 weeks oral
Excerpt: FIG. 3p illustrates effect of oral administration with STX64 in more than 15-month-old APP-PS1 mice, and comparation with APP-PS1 and wild type mice older than 15 months in the passive avoidance test. The number of mice in each group were >5. In histological analysis, * represent significant differences between vehicle- and STX64 administrated APP-PS1 mice. In behavioral test, * represent significant differences between the short-term and long-term memory sessions (STM and LTM, respectively) and the training session in the same experimental group; and, + represent significant differences between the STM and LTM sessions between each experimental group and β-amyloid group. A symbol, p<0.05, two symbols, p<0.01, and three symbols, p<0.001.
As STX64 ameliorated neurodegeneration in C. elegans models, we tested the effect of this drug on cognitive alterations provoked by intrahippocampal βA oligomers infusion, an acute AD mammalian model (FIG. 3i). […] To evaluate the effect of STX64 oral treatment on amyloid pathology in a chronic AD mice model, we assessed the effect of 3-4 weeks of STX64 oral treatment on amyloid deposition in the […] (the cerebral cortex and the hippocampus) of >15-month-old APP-PS1 mice (FIG. 4k). […] We wondered if this histological improvement correlated with amelioration of cognitive behavioral deficit. […]

[9] = wild type background, hormone 1 μg/ml
[10] = thermodependent paralysis, 1 μg/ml

For C[C@]12CC[C@@H](OS(=O)(=O)O)C[C@@H]1CC[C@@H]1[C@@H]2CC[C@]2(C)C(=O)CC[C@@H]12 [AS, [(3R,5S,8R,9S,10S,13S,14S)-10,13-Dimethyl-17-oxo-1,2,3,4,5,6,7,8,9,11,12,14,15,16-tetradecahydrocyclopenta[a]phenanthren-3-yl] sulfate], the paralysis with age ([1]; 1 μg/ml) was “reduce this effect” and the paralysis with age ([1]; 5 μg/ml) was “reduce this effect”.

In the case of C[C@]12CC[C@H](O)CC1=CC[C@@H]1[C@@H]2CC[C@]2(C)C(=O)CC[C@@H]12 [DHEA], the mobility with age [2] is reported as “showed no effect; also recorded: no effect is observed”.

In the case of CCCCCCCCCCCCCC(=O)NCCc1ccc(OS(N)(=O)=O)cc1 [DU-14], the memory loss [3] is listed as “could alleviate memory loss”.

For C[C@]12CC[C@H]3[C@@H](CCC4=CC(=O)CC[C@@]43C)[C@@H]1CC[C@H]2OS(=O)(=O)O [ES, N,N-diethylethanamine; [(8R,9S,10R,13S,14S,17R)-10,13-dimethyl-3-oxo-1,2,6,7,8,9,11,12,14,15,16,17-dodecahydrocyclopenta[a]phenanthren-17-yl] hydrogen sulfate], the life span (C. elegans; sul-2(gk187) / sul-2 mutants background, hormone 1 μg/ml) was “did not further increase longevity in sul-2 mutants backgrounds; also recorded: does not further increase in sul-2(gk187)”, the life span (C. elegans; sul-2(pv17) background, hormone 1 μg/ml) was “does not increase further in sul-2(pv17)” and the life span (C. elegans; [9]) was “increases lifespan in wild type background; also recorded: increased in longevity on a wild type background; also recorded: increases life span in a wild type background”. For the same compound, the mobility with age [2] was “improves the mobility”, the paralysis phenotype ([1]; normal NGM plates, 1 μg/ml) was “reduced” and the paralysis phenotype [1, 10] was “ameliorate”. The L1 arrest (daf-2(e1370)) was “increase”.

For NS(=O)(=O)Oc1ccc2c3c(c(=O)oc2c1)CCCCC3 [STX64], the “lifespan, dependence on daf-36” value (C. elegans; daf-36 background, STX64 1 μg/ml) was “DAF-36 is required for the longevity; also recorded: necessary for the increase of longevity”, the life span (C. elegans; sul-2 (gk187) deletion background, STX64 1 μg/ml, UV-killed E. coli) was “not in sul-2 (gk187) background; also recorded: does not further increase the longevity of sul-2 deletion mutants” and the life span (C. elegans; wild type animals, STX64 1 μg/ml, UV-killed E. coli) was “increases lifespan in wild type animals; also recorded: an increase in longevity”. The life span (C. elegans; wild type, non-UV E. coli) was “increases lifespan of wild type”, the mobility with age [2] was “significantly improved mobility; also recorded: protective effect” and the “number of Q40 aggregates” value [4] was “reduced the number of aggregates; also recorded: Q40 aggregates are reduced”. The paralysis phenotype [1, 10] was “delayed paralysis; also recorded: the paralysis phenotype is ameliorated”, the paralysis with age [5] was “delayed paralysis; also recorded: ameliorated” and the L1 arrest (daf-2(e1370)) was “mainly arrests in L1”. The development (daf-2(e1370); wild type) was “does not affect development of wild type”, the “cognitive deficiencies, passive avoidance test” value (“cognitive deficiencies” below) ([6]; local (intrahippocampal) administration) was “reverted the cognitive deficiencies” and the “cognitive deficiencies” value ([6]; systemic (oral) administration) was “reverted the cognitive deficiencies”. The βA plaque density (APP-PS1 mice [7]; >15-month-old APP-PS1 mice, 3-4 weeks oral, 0.005 mg/ml in drink water, cortex and hippocampus) was “significant reduction”, the βA plaque size (APP-PS1 mice [7]; >15-month-old APP-PS1 mice, 3-4 weeks oral, cortex) was “significant reduction” and the βA immunoreactive area (APP-PS1 mice [7]; >15-month-old APP-PS1 mice, 3-4 weeks oral, cortex and hippocampus) was “reduced in both tissues”. The “βA deposition versus normal temporal course” value (APP-PS1 mice [7]; >15-month-old treated mice compared to un-treated APP-PS1 mice of 10-12 months) was “reduces βA deposition” and the “cognitive deficiencies” value (APP-PS1 mice [8]) was “completely reverted cognitive deficiencies”.

With C[C@]12CC[C@H]3[C@@H](CCC4=CC(=O)CC[C@@]43C)[C@@H]1CC[C@@H]2OS(=O)(=O)O [TS, [(8R,9S,10R,13S,14S,17S)-10,13-dimethyl-3-oxo-1,2,6,7,8,9,11,12,14,15,16,17-dodecahydrocyclopenta[a]phenanthren-17-yl]hydrogen sulfate] the life span (C. elegans; [9]) was “do not affect; also recorded: does not affect longevity”, the mobility with age [2] was “improves the mobility” and the paralysis phenotype ([1]; normal NGM plates, 1 μg/ml) was “reduced”. For the same compound, the paralysis phenotype [1, 10] was “ameliorate” and the L1 arrest (daf-2(e1370)) was “increase”.

In the case of C[C@]12CC[C@H]3[C@@H](CCC4=CC(=O)CC[C@@]43C)[C@@H]1CC[C@@H]2O [testosterone], the mobility with age [2] is reported as “showed no effect; also recorded: no effect is observed”.

With dehydroepiandrosterone sulfate [DHEAS] the life span (C. elegans; [9]) was “do not affect; also recorded: does not affect longevity”, the mobility with age [2] was “improves the mobility” and the L1 arrest (daf-2(e1370)) was “increase”.

In the case of pregnenolone sulfate, the mobility with age [2] is reported as “showed no effect; also recorded: no effect is observed”.
